Data on seven compounds can be found in patent publication US7408067B2, “Aza-cyclic compounds as modulators of acetylcholine receptors” (Merck + Co., Inc., priority 2002, dated 2008).

Each structure is given as a SMILES string. Counter-ions that a name gives are not always drawn.

`CN1CCC(Sc2cc3c(cc2Cl)[nH]c(=O)n3C)CC1` [Example 20, 5-Chloro-1-methyl-6-[(1-methyl-4-piperidinyl)sulfanyl]-1,3-dihydro-2H-benzimidazol-2-one]: the melting point was 210.2 to 211.9 °C.
Next, `CC(=O)Nc1ccc(SC2CCN(C)CC2)cc1` (as salt: salt) [Example 7, N-{4-[(1-methylpiperidin-4-yl)thio]phenyl}acetamide]: 199 to 201 °C.
Next, `CN1CCC(Sc2ccc3[nH]c(=O)n(C)c3c2)CC1` [Example 18, 1-Methyl-6-[(1-methyl-4-piperidinyl)sulfanyl]-1,3-dihydro-2H-benzimidazol-2-one]: 196.4 to 197.6 °C.
In the case of `CN1CCC(Sc2ccc3[nH]c(=O)[nH]c3c2)CC1` [Example 16, 5-[(1-methyl-4-piperidinyl)sulfanyl]-1,3-dihydro-2H-benzimidazol-2-one], the melting point lay in the range of 213.8 to 214.7 °C.
With `CN1CCC(Sc2ccc3[nH]c(=O)[nH]c(=O)c3c2)CC1` [Example 17, 6-[(1-methyl-4-piperidinyl)sulfanyl]-2,4(1H,3H)-quinazolinedione], the melting point was greater than 260 °C.
`CN1CCC(Sc2ccc3[nH]c(=O)n(C)c(=O)c3c2)CC1` [Example 21, 3-Methyl-6-[(1-methyl-4-piperidinyl)sulfanyl]-2,4(1H,3H)-quinazolinedione] came in with a melting point of 200.8 to 202.6 °C.
The figure for `CN1CCC(Sc2ccc(N)cc2)CC1` (as salt: hydrochloride) [Example 5, 4-(1-methylpiperidin-4-yl)thiophenylamine] is 96 to 98 °C.
